This is an account of results in ChEMBL document CHEMBL3991601, “The target landscape of clinical kinase drugs” (Science, 2017).

The structures appear in SMILES notation. Calls of active or inactive are those of the source.

The target in assay [1] is T1, Mitogen-activated protein kinase kinase kinase 3 (Homo sapiens, UniProt Q99759).
T1 sequence (Q99759 whole entry): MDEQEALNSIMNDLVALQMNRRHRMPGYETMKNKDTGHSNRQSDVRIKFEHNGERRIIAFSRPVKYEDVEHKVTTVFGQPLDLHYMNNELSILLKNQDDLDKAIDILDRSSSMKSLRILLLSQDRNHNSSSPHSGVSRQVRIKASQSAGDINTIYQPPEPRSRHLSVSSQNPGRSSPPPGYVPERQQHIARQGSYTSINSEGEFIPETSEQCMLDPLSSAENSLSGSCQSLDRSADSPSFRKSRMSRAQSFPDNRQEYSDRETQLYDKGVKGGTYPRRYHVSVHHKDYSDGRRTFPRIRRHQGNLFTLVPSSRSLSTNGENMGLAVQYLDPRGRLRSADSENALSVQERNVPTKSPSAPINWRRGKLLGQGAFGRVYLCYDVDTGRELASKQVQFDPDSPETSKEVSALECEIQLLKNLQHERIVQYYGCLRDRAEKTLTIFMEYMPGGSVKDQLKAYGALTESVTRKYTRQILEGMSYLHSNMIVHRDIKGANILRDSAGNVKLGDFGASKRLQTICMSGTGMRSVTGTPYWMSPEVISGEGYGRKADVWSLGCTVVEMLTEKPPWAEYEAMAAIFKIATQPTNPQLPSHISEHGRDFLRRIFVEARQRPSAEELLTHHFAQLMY

In assay [2] the target is T2, Glycogen phosphorylase, brain form (Homo sapiens, UniProt P11216).
T2 sequence (P11216 whole entry): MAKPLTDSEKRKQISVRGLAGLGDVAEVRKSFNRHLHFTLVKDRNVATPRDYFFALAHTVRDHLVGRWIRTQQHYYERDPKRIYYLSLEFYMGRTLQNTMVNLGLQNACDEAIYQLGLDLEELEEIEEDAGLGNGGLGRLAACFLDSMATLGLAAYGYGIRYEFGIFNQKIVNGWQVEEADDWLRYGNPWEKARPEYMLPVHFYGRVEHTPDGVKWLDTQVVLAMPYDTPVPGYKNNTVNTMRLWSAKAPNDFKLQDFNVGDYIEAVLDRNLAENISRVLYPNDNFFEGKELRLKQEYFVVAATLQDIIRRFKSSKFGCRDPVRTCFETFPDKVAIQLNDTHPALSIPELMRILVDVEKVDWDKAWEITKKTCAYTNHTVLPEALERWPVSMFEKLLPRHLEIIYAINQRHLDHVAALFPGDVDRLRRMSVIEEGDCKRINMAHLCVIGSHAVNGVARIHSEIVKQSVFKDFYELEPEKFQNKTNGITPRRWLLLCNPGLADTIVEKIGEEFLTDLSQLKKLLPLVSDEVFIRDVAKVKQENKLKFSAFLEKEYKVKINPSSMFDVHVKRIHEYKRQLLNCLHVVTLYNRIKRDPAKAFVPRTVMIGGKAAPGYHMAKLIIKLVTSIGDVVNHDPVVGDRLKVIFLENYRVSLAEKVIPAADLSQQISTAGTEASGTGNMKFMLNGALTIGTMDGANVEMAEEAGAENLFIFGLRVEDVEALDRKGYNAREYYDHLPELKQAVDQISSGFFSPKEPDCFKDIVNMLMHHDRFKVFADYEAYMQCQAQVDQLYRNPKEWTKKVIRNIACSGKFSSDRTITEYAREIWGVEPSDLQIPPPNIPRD

Assay [3] concerns the target T3, Cysteine--tRNA ligase, cytoplasmic (Homo sapiens, UniProt P49589).
T3 sequence (P49589 whole entry): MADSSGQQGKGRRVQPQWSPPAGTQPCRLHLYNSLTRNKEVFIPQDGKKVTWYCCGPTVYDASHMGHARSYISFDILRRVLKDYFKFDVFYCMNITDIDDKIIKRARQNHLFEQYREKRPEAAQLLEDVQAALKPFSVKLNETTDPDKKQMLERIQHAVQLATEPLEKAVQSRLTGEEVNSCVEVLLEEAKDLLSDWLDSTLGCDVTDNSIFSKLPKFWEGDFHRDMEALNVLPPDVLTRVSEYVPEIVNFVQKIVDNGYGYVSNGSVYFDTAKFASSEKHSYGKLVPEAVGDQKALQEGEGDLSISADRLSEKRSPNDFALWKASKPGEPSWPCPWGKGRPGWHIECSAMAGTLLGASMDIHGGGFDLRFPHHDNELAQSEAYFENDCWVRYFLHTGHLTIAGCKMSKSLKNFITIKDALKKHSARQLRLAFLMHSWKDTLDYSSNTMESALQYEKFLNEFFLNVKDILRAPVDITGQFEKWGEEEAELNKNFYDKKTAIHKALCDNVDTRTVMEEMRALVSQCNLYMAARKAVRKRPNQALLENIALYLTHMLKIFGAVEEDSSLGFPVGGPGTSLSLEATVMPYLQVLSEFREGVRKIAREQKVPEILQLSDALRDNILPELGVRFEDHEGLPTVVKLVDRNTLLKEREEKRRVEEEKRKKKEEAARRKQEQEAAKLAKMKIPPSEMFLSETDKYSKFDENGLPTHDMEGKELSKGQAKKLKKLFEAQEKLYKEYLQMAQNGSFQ

The target in assay [4] is T4, ATP-dependent RNA helicase DDX1 (Homo sapiens, UniProt Q92499).
T4 sequence (Q92499 whole entry): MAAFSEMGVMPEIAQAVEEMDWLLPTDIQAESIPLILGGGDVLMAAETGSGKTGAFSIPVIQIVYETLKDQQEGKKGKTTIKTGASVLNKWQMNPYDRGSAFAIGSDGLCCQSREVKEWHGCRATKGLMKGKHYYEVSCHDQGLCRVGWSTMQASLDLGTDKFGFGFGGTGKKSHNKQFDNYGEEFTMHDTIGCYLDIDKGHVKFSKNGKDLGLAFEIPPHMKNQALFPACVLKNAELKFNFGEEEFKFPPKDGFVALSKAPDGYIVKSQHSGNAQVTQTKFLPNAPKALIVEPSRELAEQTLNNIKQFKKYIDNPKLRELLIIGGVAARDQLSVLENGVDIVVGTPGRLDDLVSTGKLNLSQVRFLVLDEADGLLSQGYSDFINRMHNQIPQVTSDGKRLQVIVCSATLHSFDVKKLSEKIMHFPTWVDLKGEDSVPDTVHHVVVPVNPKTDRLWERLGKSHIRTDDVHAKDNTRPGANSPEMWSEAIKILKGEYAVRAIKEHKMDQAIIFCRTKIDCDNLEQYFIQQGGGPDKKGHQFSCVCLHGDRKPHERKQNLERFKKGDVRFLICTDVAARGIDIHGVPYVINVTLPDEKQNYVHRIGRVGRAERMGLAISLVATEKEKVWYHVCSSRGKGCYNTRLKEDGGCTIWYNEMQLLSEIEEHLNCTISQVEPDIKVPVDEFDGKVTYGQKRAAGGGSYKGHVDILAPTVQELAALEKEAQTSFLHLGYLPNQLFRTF

In assay [5] the target is Tyrosine-protein kinase Yes (Homo sapiens, UniProt P07947).
Assay [6] has as its target Rho-associated protein kinase 1 (Homo sapiens, UniProt Q13464).

The Kd is the constant that tells how readily two partners part at equilibrium.
Further: in the data inactive means no Kd found up to 30 µM.

Chain of Rho-associated protein kinase 1 (Q13464 whole entry): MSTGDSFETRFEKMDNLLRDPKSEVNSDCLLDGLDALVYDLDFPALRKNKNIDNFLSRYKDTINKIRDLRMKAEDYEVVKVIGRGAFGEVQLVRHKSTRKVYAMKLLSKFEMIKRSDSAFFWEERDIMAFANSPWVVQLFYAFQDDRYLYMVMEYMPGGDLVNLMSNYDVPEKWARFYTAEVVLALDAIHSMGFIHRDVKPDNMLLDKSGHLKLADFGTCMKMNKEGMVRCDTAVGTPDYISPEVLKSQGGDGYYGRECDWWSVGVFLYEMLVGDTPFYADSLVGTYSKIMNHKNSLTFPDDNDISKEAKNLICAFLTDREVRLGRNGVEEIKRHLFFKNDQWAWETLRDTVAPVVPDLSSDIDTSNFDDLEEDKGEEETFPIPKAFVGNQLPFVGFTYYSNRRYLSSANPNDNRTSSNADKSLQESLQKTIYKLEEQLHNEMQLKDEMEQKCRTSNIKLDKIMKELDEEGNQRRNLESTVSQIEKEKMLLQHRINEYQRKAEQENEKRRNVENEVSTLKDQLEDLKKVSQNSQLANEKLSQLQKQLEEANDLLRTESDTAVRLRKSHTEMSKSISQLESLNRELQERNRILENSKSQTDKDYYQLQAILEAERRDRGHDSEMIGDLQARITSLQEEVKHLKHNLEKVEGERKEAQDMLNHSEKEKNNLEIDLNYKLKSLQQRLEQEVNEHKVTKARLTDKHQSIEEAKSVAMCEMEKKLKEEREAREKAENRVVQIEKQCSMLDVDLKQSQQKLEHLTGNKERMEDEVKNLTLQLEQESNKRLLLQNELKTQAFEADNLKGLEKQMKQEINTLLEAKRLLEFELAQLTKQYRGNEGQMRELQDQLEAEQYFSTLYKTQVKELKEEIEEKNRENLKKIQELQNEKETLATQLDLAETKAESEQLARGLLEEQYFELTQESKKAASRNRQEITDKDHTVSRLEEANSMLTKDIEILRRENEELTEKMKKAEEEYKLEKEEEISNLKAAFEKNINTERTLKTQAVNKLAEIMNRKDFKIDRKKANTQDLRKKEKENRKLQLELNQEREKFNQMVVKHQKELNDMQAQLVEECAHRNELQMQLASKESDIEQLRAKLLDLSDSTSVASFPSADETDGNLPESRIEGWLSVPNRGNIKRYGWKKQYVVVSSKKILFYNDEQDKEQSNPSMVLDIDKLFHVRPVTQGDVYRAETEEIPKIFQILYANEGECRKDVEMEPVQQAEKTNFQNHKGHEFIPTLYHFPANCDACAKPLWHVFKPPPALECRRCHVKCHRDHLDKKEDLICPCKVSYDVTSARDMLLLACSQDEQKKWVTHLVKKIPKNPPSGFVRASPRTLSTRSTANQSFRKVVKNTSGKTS
Chain of Tyrosine-protein kinase Yes (P07947 whole entry): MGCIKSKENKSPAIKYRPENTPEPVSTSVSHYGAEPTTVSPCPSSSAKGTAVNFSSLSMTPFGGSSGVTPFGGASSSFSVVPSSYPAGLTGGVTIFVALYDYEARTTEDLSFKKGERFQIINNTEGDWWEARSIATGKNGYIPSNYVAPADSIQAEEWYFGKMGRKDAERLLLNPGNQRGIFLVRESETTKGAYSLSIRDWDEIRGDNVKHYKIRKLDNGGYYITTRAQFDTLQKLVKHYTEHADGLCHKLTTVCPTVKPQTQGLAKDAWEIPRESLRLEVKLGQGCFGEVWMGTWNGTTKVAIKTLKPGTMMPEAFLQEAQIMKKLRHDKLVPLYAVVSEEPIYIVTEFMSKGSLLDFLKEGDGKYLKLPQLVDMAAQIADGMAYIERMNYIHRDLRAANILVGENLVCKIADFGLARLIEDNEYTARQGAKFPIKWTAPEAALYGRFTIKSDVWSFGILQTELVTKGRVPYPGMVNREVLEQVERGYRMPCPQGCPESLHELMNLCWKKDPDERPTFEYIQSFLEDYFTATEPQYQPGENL

Consider `Cc1ccc(S(=O)(=O)Nc2nc3ccccc3nc2Nc2ccc3nsnc3c2)cc1`, for which the Kd in assay [1], in assay [2], in assay [3], in assay [4], in assay [5] and in assay [6] was > 30 µM (inactive) in each case.

Regarding `CCS(=O)(=O)N1CC(CC#N)(n2cc(-c3ncnc4[nH]ccc34)cn2)C1` [BARICITINIB], the Kd in assay [1] was > 30 µM (inactive); in assay [2] it was > 30 µM (inactive); in assay [3], > 30 µM (inactive); in assay [4], > 30 µM (inactive); in assay [5], > 30 µM (inactive); in assay [6] it was 0.482 µM (active).

Turning to `Cc1ccc(NC(=O)c2ccc(CN3CC[C@H](N(C)C)C3)c(C(F)(F)F)c2)cc1Nc1nccc(-c2cncnc2)n1` [BAFETINIB], the Kd in assay [1], in assay [2], in assay [3], in assay [4], in assay [5] and in assay [6] was > 30 µM (inactive) in each case.

On to `Cc1ccc(-n2nc(C(C)(C)C)cc2NC(=O)NCc2cc(F)ccc2Oc2ccc3c(cnn3CCO)c2)cc1` [PEXMETINIB], for which the Kd in assay [1], in assay [2], in assay [3], in assay [4], in assay [5] and in assay [6] was > 30 µM (inactive) in each case.

As for `CNS(=O)(=O)Nc1nccc(Cc2c(C)c3ccc(Oc4ncccn4)cc3oc2=O)c1F` [AVUTOMETINIB], the Kd in assay [1], in assay [2], in assay [3], in assay [4], in assay [5] and in assay [6] was > 30 µM (inactive) in each case.

With `COc1ccc(-c2ccc3c(N4CCOC[C@@H]4C)nc(N4CCOC[C@@H]4C)nc3n2)cc1CO` [AZD-8055], the Kd in assay [1], in assay [2], in assay [3], in assay [4], in assay [5] and in assay [6] was > 30 µM (inactive) in each case.

For `O=C(O)[C@]1(Cc2cccc(Nc3nccs3)n2)CC[C@@H](Oc2cccc(Cl)c2F)CC1` [MK-5108], the Kd in assay [1], in assay [2], in assay [3], in assay [4], in assay [5] and in assay [6] was > 30 µM (inactive) in each case.

Take `COc1cc2nccc(Oc3ccc(NC(=O)Nc4cc(C)on4)c(Cl)c3)c2cc1OC` [TIVOZANIB]: the Kd in assay [1], in assay [2], in assay [3], in assay [4], in assay [5] and in assay [6] was > 30 µM (inactive) each time.

`CN1CCC(CNc2ccc3ncc(-c4cccc(OC(F)(F)F)c4)n3n2)CC1` [SGI-1776]: the Kd in assay [1], in assay [2], in assay [3], in assay [4], in assay [5] and in assay [6] was > 30 µM (inactive) each time.

In the case of `CC(=O)Nc1cccc(-n2c(=O)n(C3CC3)c(=O)c3c(Nc4ccc(I)cc4F)n(C)c(=O)c(C)c32)c1` [TRAMETINIB], the Kd in assay [1], in assay [2], in assay [3], in assay [4], in assay [5] and in assay [6] was > 30 µM (inactive) each time.

As to `CCCS(=O)(=O)Nc1ccc(F)c(C(=O)c2c[nH]c3ncc(-c4ccc(Cl)cc4)cc23)c1F` [VEMURAFENIB], the Kd in assay [1], in assay [2], in assay [3], in assay [4], in assay [5] and in assay [6] was > 30 µM (inactive) each time.

On to `COCCNCc1ccc(-c2cc3nccc(Oc4ccc(NC(=S)NC(=O)Cc5ccc(F)cc5)cc4F)c3s2)nc1` [GLESATINIB], for which the Kd in assay [1], in assay [2], in assay [3], in assay [4], in assay [5] and in assay [6] was > 30 µM (inactive) each time.

With `Cc1cc([C@@H](C)Nc2ccccc2C(=O)O)c2nc(N3CCOCC3)cc(=O)n2c1` [AZD-6482], the Kd in assay [1], in assay [2], in assay [3], in assay [4], in assay [5] and in assay [6] was > 30 µM (inactive) each time.

In the case of `CNC(=O)c1ccc(-c2cnc3ncc(Cc4ccc5ncccc5c4)n3n2)cc1F` [CAPMATINIB], the Kd in assay [1], in assay [2], in assay [3], in assay [4], in assay [5] and in assay [6] was > 30 µM (inactive) throughout.
